Experiments:
Assay in all cases: normalised response (% of control), CellTox Green; higher = less cell death (100 = DMSO, 0 = benzethonium chloride kill control)
Details in all cases: incubation time: 72 h
[1] = test system: CAL-120
Summary of the method: (§1)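 Breast cancer cell lines in 20 µl suspension were added to 384-well plates containing compound at 5 concentrations, spaced in 10-fold steps across a 10,000-fold range chosen for each compound, and incubated for 72 h. CellTox Green fluorescence was read at 485/520 nm, followed by CellTiter-Glo luminescence after 10 min at room temperature. Signals on each plate were normalised so that 0.1 % DMSO equals 100 and a positive kill control equals 0. Every value in the table is the normalised signal at one concentration of the series.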

[2] = test system: BT-549
Summary of the method: as §1

[3] = test system: MDA-MB-436
Summary of the method: as §1

[4] = test system: HCC1599
Summary of the method: as §1

[5] = test system: HCC1937
Summary of the method: as §1

[6] = test system: MDA-MB-231
Summary of the method: as §1

[7] = test system: MFM-223
Summary of the method: as §1

[8] = test system: MDA-MB-468
Summary of the method: as §1

[9] = test system: CAL-51
Summary of the method: as §1

[10] = test system: HDQ-P1
Summary of the method: as §1

[11] = test system: Hs578T
Summary of the method: as §1

[12] = test system: MCF-10A
Summary of the method: as §1

[13] = test system: MDA-MB-453
Summary of the method: as §1

[14] = test system: BT-474
Summary of the method: as §1

[15] = test system: CAL-85-1
Summary of the method: as §1

[16] = test system: CAL-148
Summary of the method: as §1

[17] = test system: DU-4475
Summary of the method: as §1

[18] = test system: HCC1143
Summary of the method: as §1

Compound | normalised response [1] [%] | normalised response [2] [%] | normalised response [3] [%] | normalised response [4] [%] | normalised response [5] [%] | normalised response [6] [%] | normalised response [7] [%] | normalised response [8] [%] | normalised response [9] [%] | normalised response [10] [%] | normalised response [11] [%] | normalised response [12] [%] | normalised response [13] [%] | normalised response [14] [%] | normalised response [15] [%] | normalised response [16] [%] | normalised response [17] [%] | normalised response [18] [%]
COCC1(CO)C(=O)C2CCN1CC2 (centres undefined) [Prima-1 Met] (1000 nM) | 99.5 | 112 | 71 | 109 | 120 | 98.3 | 89.9 | 103 | 111 | 101 | 108 | 101 | 107 | 104 | 102 | 71.1 | 104 | 114
CCc1c2c(nc3ccc(OC(=O)N4CCC(N5CCCCC5)CC4)cc13)-c1cc3c(c(=O)n1C2)COC(=O)[C@]3(O)CC [Irinotecan] (10000 nM) | 74.3 | 107 | 97.1 | 87 | 55.9 | 106 | 103 | 119 | -10.4 | 74.4 | 104 | 100 | 109 | 102 | 64.6 | 44.4 | 84.8 | 95.2
Oc1ccc2c(c1)CC[C@H](c1ccccc1)[C@@H]2c1ccc(OCCN2CCCC2)cc1 [Lasofoxifene] (1000 nM) | 99.7 | 118 | 109 | 111 | 72.2 | 119 | 95.5 | 178 | 105 | 86.1 | 68.7 | 67.1 | 104 | 99.8 | 69.3 | 103 | 102 | 112
CNC(=O)c1cc(Oc2ccc(NC(=O)Nc3ccc(Cl)c(C(F)(F)F)c3)c(F)c2)ccn1 [Regorafenib] (1000 nM) | 102 | 116 | 108 | 103 | 122 | 115 | 102 | 143 | 87.7 | 97.6 | 110 | 101 | 107 | 101 | 103 | 103 | 102 | 
COc1cc2ncnc(Nc3ccc(F)c(Cl)c3)c2cc1OCCCN1CCOCC1 [Gefitinib] (1000 nM) | 100 | 123 | 91.5 | 97.8 | 123 | 101 | 65.4 | 125 | 108 | 84.8 | 95.9 | 99.2 | 98.3 | 91 | 79.5 | 89.8 | 101 | 83.2
O=C(/C=C/c1cccc(S(=O)(=O)Nc2ccccc2)c1)NO [Belinostat] (1000 nM) | 70.4 | 129 | 79.3 | 86.1 | 117 | 22.3 | 78.5 | 97.7 | 50.8 | 103 | 77.3 | 70 | 99.5 | 65.2 | 51.1 | 66.4 | 75.8 | 100
NC(=O)c1ccc(I)c([N+](=O)[O-])c1 [Iniparib] (1000 nM) | 93.3 | 121 | 93.9 | 89 | 63.7 | 98.8 | 96.7 | 125 | 90.7 | 103 | 56.3 | 81.6 | 88.2 | 94.6 | 101 | 82.5 | 95.2 | 101
C=C1C[C@@H]2[C@H](CC[C@]3(C)C(=O)CC[C@@H]23)[C@@]2(C)C=CC(=O)C=C12 [Exemestane] (1000 nM) | 105 | 113 | 95.1 | 108 | 121 | 99.6 | 100 | 149 | 106 | 116 |  | 112 | 112 | 97.2 | 99 | 96.9 | 109 | 108
C=C1C[C@@H]2[C@H](CC[C@]3(C)C(=O)CC[C@@H]23)[C@@]2(C)C=CC(=O)C=C12 [Exemestane] (10000 nM) | 103 | 81.2 | 90 | 112 | 115 | 92.4 | 86.2 | 103 | 103 |  | 117 | 111 | 106 | 105 | 71.2 | 106 | 106 | 112
COc1cc(OC2CCN(C)CC2)ccc1Nc1ncc2c(n1)n(C1CCCC1)c(=O)n2C [AZ 3146] (1000 nM) | 100 | 120 | 86 | 92.5 | 88.2 |  | 101 | 88.7 | 51.4 | 99.6 | 97.5 | 99.3 | 109 | 101 | 103 | 90.9 | 97.9 | 87.6
CN(C)c1nc(N(C)C)nc(N(C)C)n1 [Altretamine] (1000 nM) | 104 | 107 | 80.3 | 90.7 | 118 | 110 | 99.7 | 140 | 111 | 69.2 | 98.1 | 78 | 105 | 100 | 102 | 101 | 103 | 113
CCc1c2c(nc3ccc(OC(=O)N4CCC(N5CCCCC5)CC4)cc13)-c1cc3c(c(=O)n1C2)COC(=O)[C@]3(O)CC [Irinotecan] (1000 nM) | 93.5 | 121 | 44.5 | 99.1 | 123 | 113 | 101 | 141 | 61.9 | 93.7 | 81.9 |  | 107 | 103 | 93.1 | 29.8 | 99.1 | 96.6
Cc1[nH]c2ccccc2c1CCNCc1ccc(/C=C/C(=O)NO)cc1 [Panobinostat] (1000 nM) | -30.8 | 69.6 | 86.6 | 53.1 | -17.6 | -36.7 | 32.5 | -0.17 | -9.56 | 39.2 | -12.8 | 34.9 | 75.5 | 19.9 | -26 | 4.38 | 68.2 | 47.3
Oc1ccc2c(c1)CC[C@H](c1ccccc1)[C@@H]2c1ccc(OCCN2CCCC2)cc1 [Lasofoxifene] (100 nM) | 93.6 | 113 | 104 | 95.2 | 113 | 125 |  | 111 | 123 | 66 | 84.9 | 111 | 88 | 103 | 82.2 | 62.9 | 105 | 
Cc1ccc(NC(=O)c2ccc(CN3CCN(C)CC3)cc2)cc1Nc1nc(-c2cccnc2)cs1 [Masitinib] (1000 nM) | 99.2 | 110 | 68.7 | 101 | 113 | 114 | 89.7 | 177 | 103 | 89.1 | 97.8 | 103 | 102 | 102 | 98.9 | 97.3 | 100 | 99.5
O=P1(N(CCCl)CCCl)NCCCO1 (centres undefined) [Cyclophosphamide] (40000 nM) | 98.7 | 100 | 105 | 107 | 102 | 102 | 102 |  | 105 | 107 | 50.5 | 76.1 | 106 | 99.1 | 92.4 | 102 | 100 | 71.3
COCC1(CO)C(=O)C2CCN1CC2 (centres undefined) [Prima-1 Met] (10000 nM) | 92.1 | 63.4 | 62.3 | 108 |  | 123 | 93.1 | 119 | 115 | 102 | 117 | 106 | 104 | 101 | 74.2 | 99.3 | 107 | 93
O=P1(N(CCCl)CCCl)NCCCO1 (centres undefined) [Cyclophosphamide] (4000 nM) | 101 | 98.7 | 97.3 | 105 | 124 | 113 | 94.8 | 100 | 112 | 112 | 62.1 | 86.7 | 105 | 100 | 100 | 104 | 102 | 
c1ccc2c(CCNc3ccc(Nc4ccncc4)cc3)c[nH]c2c1 [Serdemetan] (1000 nM) | 97.1 | 124 | 81.8 | 89.1 |  | 93.9 | 97.8 | 12.4 | -44.2 | 99.7 | 92.3 | 96.9 | 102 | 99.5 | 102 | 73.4 | 94 | 
CN(C)CCOc1ccc(/C(=C(/CCCl)c2ccccc2)c2ccccc2)cc1 [Toremifene] (1000 nM) | 99 | 99.3 | 70.4 | 95.5 | 110 |  | 92.4 | 101 | 102 |  | 55.3 | 108 | 106 | 100 | 106 | 89.1 | 99.9 | 118
NC(=O)c1ccc(I)c([N+](=O)[O-])c1 [Iniparib] (10000 nM) | 88.8 | 113 | 77.5 | 100 | 107 |  | 95.6 | 146 | 83.7 |  |  | 77.3 | 99.6 | 89.9 | 142 | 101 | 94.3 | 
N#Cc1ccc(COC[C@H]2O[C@@H](n3c(NCc4ccc(Cl)c(Cl)c4)nc4c(N)ncnc43)[C@H](O)[C@@H]2O)cc1 (10000 nM) | 98.2 | 111 | 87.8 | 109 | 106 | 105 | 2.84 | 103 | 91.6 | 110 | 120 | 103 | 102 | 98.8 |  | 95.2 | 104 | 79.2
CN(C)CCOc1ccc(/C(=C(/CCCl)c2ccccc2)c2ccccc2)cc1 [Toremifene] (10000 nM) | 91.8 | 82 | 91.7 | 80.3 | -3.77 | 47.6 | 94.7 | 9.03 | 104 | 103 | 103 | 69.2 | 86.4 | 22.9 | 79.9 | 59.6 | 94.6 | 

From the supplement of paper PMC4862054
